Laboratory results from US8153809B2, “Dihydropyridone ureas as P2X7 modulators” (Roche Palo Alto LLC, priority 2008, dated 2012).

biological target: T1, P2X7 (UniProt Q99572); assay: pIC50 values for P2X7 (Table 1); type: cell-based
T1 sequence (Q99572 1-595): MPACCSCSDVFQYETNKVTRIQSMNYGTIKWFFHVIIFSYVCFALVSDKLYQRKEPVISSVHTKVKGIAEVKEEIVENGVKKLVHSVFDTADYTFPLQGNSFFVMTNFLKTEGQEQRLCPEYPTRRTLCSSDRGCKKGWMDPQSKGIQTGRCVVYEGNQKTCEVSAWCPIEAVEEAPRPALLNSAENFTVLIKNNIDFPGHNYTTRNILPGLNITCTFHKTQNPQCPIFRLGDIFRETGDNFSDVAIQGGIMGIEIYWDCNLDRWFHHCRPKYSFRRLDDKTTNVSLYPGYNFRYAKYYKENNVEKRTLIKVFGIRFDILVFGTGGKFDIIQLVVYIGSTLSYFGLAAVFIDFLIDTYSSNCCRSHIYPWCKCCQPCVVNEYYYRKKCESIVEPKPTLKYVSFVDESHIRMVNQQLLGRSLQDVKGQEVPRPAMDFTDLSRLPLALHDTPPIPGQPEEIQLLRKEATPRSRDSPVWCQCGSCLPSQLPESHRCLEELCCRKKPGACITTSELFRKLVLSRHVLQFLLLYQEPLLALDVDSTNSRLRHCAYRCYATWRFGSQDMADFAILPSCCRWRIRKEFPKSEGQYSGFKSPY
Procedure: Intracellular Calcium Flux (FLIPR) Assay
Compound and Reagent Preparation
Stock solutions of compounds were prepared from powders as a 10 mM DMSO stock solution. These solutions were stored at RT during the two week period of these experiments to prevent freeze-thaw of the DMSO stocks. The DMSO stocks were added to the appropriate assay buffer at a concentration of 10 μM, and then diluted serially to the final concentrations that were tested. […] The aqueous solutions of compounds as well as ATP (Sigma A7699) and BzATP (Sigma B6396) were prepared fresh for each day of experiment.
1321N1 cells stably expressing the full length human P2X7 gene (1321N1-hP2X7) and HEK293 cells stably expressing the full length rat P2X7 gene (HEK293-rP2X7) were obtained from the Roche Cell Culture Facility. 1321N1-hP2X7 cells were grown in Dulbecco's Modified Eagle's Medium (DMEM) high glucose supplemented with 10% FBS and 250 μg/mL G418. HEK293-rP2X7 cells were grown in DMEM/F-12 supplemented with 10% FBS, 1 mM CaCl2, 2 mM MgCl2, 2 mM L-Glutamine and 500 μg/ml G418. Cells were split such that they never became >70% confluent.
Intracellular Calcium Flux (FLIPR)
On the day prior to the experiment, 1321N1-hP2X7 or HEK293-rP2X7 cells were released into suspension with calcium-free PBS+Versene and washed by centrifugation with calcium-free PBS to remove the Versene.
On the day of the experiment, plates were washed with FLIPR buffer (calcium- and magnesium-free Hank's Balanced Salt Solution (HBSS) supplemented with 10 mM Hepes, 2.5 mM probenecid and 2 mM calcium chloride) using a BIO-TEK 96 channel plate washer and incubated with […] fluo-3 dye at 37° C. for one hr. The dye was then removed by plate washing and the cells were allowed to equilibrate for 20 min at room temperature with antagonist or vehicle (FLIPR buffer). Agonist (100 μM BzATP final concentration for hP2X7; 5 μM BzATP final concentration or rP2X7) was added online with the FLIPR and fluorescence measurements made at 1 sec intervals for 60 sec followed by 3 sec intervals for a further 4 min (5 min total). A final addition of 5 μM ionomycin was made and the maximal BzATP-evoked fluorescence normalized to the maximal ionomycin-evoked fluorescence.

| Structure (SMILES) | pIC50 |
| --- | --- |
| Cc1c(NC(=O)N2C=CC(=O)C[C@H]2c2ccc(F)cc2)ccc2ncccc12 [Compound 125, (S)-2-(4-Fluoro-phenyl)-4-oxo-3,4-dihydro-2H-pyridine-1-carboxylic acid (5-methyl-quinolin-6-yl)-amide] | 7.16 |
| O=C1C=CN(C(=O)Nc2cc(F)c(Cl)cc2Br)[C@H](c2ccc(F)cc2)C1 [Compound 18, (S)-2-(4-Fluoro-phenyl)-4-oxo-3,4-dihydro-2H-pyridine-1-carboxylic acid (2-bromo-4-chloro-5-fluoro-phenyl)-amide] | 6.286 |
| COc1cc(NC(=O)N2C=CC(=O)C[C@H]2c2ccc(F)cc2)c(Br)cc1Cl [Compound 5, (S)-2-(4-Fluoro-phenyl)-4-oxo-3,4-dihydro-2H-pyridine-1-carboxylic acid (2-bromo-4-chloro-5-methoxy-phenyl)-amide] | 7.4325 |
| COc1cc(NC(=O)N2C=CC(=O)CC2c2ccc(F)c(F)c2)c(Br)cc1C (centres unmarked) [Compound 44, 2-(3,4-Difluoro-phenyl)-4-oxo-3,4-dihydro-2H-pyridine-1-carboxylic acid (2-bromo-5-methoxy-4-methyl-phenyl)-amide] | 7.383 |
| Cc1cc(Cl)c(CN(CCO)CCO)cc1NC(=O)N1C=CC(=O)C[C@H]1c1ccc(F)cc1 [Compound 127, (S)-2-(4-Fluoro-phenyl)-4-oxo-3,4-dihydro-2H-pyridine-1-carboxylic acid (5-{[bis(2-hydroxy-ethyl)-amino]-methyl}-4-chloro-2-methyl-phenyl)-amide] | 7.615 |
| CC(O)c1cc(NC(=O)N2C=CC(=O)C[C@H]2c2ccc(F)cc2)c(Br)cc1Cl (stereo partly drawn) [Compound 57, (S)-2-(4-Fluoro-phenyl)-4-oxo-3,4-dihydro-2H-pyridine-1-carboxylic acid [2-bromo-4-chloro-5-(1-hydroxy-ethyl)-phenyl]-amide] | 7.42 |
| COc1cc(NC(=O)N2C=CC(=O)C[C@H]2c2ccc(F)cc2)c(Br)cc1C [Compound 12, (S)-2-(4-Fluoro-phenyl)-4-oxo-3,4-dihydro-2H-pyridine-1-carboxylic acid (2-bromo-5-methoxy-4-methyl-phenyl)-amide] | 7.873 |
| Cc1cc(Cl)c(OC2CCNCC2)cc1NC(=O)N1C=CC(=O)C[C@H]1c1ccc(F)cc1 [Compound 142, (S)-2-(4-Fluoro-phenyl)-4-oxo-3,4-dihydro-2H-pyridine-1-carboxylic acid [4-chloro-2-methyl-5-(piperidin-4-yloxy)-phenyl]-amide] | 6.71 |
| O=C1C=CN(C(=O)Nc2c(F)cccc2F)C(c2ccc(F)cc2)C1 (centres unmarked) [Compound 62, 2-(4-Fluoro-phenyl)-4-oxo-3,4-dihydro-2H-pyridine-1-carboxylic acid (2,6-difluoro-phenyl)-amide] | 5.51 |
| COc1cc(NC(=O)N2C=CC(=O)C[C@H]2c2cccc(F)c2)c(Br)cc1OC(F)F [Compound 46, (S)-2-(3-Fluoro-phenyl)-4-oxo-3,4-dihydro-2H-pyridine-1-carboxylic acid (2-bromo-4-difluoromethoxy-5-methoxy-phenyl)-amide] | 7.293 |
| Cc1cc(F)c(NC(=O)N2C=CC(=O)C[C@H]2c2ccc(F)cc2)cc1OCCO [Compound 59, (S)-2-(4-Fluoro-phenyl)-4-oxo-3,4-dihydro-2H-pyridine-1-carboxylic acid [2-fluoro-5-(2-hydroxy-ethoxy)-4-methyl-phenyl]-amide] | 6.62 |
| C[C@@H](O)c1cc(NC(=O)N2C=CC(=O)C[C@H]2c2ccc(F)cc2)c(Br)cc1Cl [Compound 84, (S)-2-(4-Fluoro-phenyl)-4-oxo-3,4-dihydro-2H-pyridine-1-carboxylic acid [2-bromo-4-chloro-5-((R)-1-hydroxy-ethyl)-phenyl]-amide] | 6.67 |
| Cc1c(CC(=O)OC(C)(C)C)cccc1NC(=O)N1C=CC(=O)C[C@H]1c1ccc(F)cc1 [Compound 144, (3-{[(S)-2-(4-Fluoro-phenyl)-4-oxo-3,4-dihydro-2H-pyridine-1-carbonyl]amino}-2-methyl-phenyl)-acetic acid tert-butyl ester] | 6.215 |
| O=C1C=CN(C(=O)Nc2cc(OCCO)c(Cl)cc2Br)[C@H](c2cccc(F)c2)C1 [Compound 50, (S)-2-(3-Fluoro-phenyl)-4-oxo-3,4-dihydro-2H-pyridine-1-carboxylic acid [2-bromo-4-chloro-5-(2-hydroxy-ethoxy)-phenyl]-amide] | 7.407 |
| O=C1C=CN(C(=O)Nc2cc(O)c(Cl)cc2Br)[C@H](c2ccc(F)cc2)C1 [Compound 24, (S)-2-(4-Fluoro-phenyl)-4-oxo-3,4-dihydro-2H-pyridine-1-carboxylic acid (2-bromo-4-chloro-5-hydroxy-phenyl)-amide] | 6.71 |
| Cc1c2ccc(NC(=O)N3C=CC(=O)C[C@H]3c3ccc(F)cc3)c(Br)c2nn1C [Compound 151, (S)-2-(4-Fluoro-phenyl)-4-oxo-3,4-dihydro-2H-pyridine-1-carboxylic acid (7-bromo-2,3-dimethyl-2H-indazol-6-yl)-amide] | 5.975 |
| O=C1C=CN(C(=O)Nc2ccccc2)[C@H](c2ccc(F)cc2)C1 [Compound 126, (S)-2-(4-Fluoro-phenyl)-4-oxo-3,4-dihydro-2H-pyridine-1-carboxylic acid phenylamide] | 6.18 |
| COc1cc(Br)c(NC(=O)N2C=CC(=O)CC2c2ccccc2)cc1OC (centres unmarked) [Compound 1, 4-Oxo-2-phenyl-3,4-dihydro-2H-pyridine-1-carboxylic acid (2-bromo-4,5-dimethoxy-phenyl)-amide] | 7.408 |
| COc1ccccc1NC(=O)N1C=CC(=O)CC1c1ccc(F)cc1 (centres unmarked) [Compound 105, 2-(4-Fluoro-phenyl)-4-oxo-3,4-dihydro-2H-pyridine-1-carboxylic acid (2-methoxy-phenyl)-amide] | 5.91 |
| COc1cc(NC(=O)N2C=CC(=O)CC2c2ccccc2)c(Br)cc1Cl (centres unmarked) [Compound 2, 4-Oxo-2-phenyl-3,4-dihydro-2H-pyridine-1-carboxylic acid (2-bromo-4-chloro-5-methoxy-phenyl)-amide] | 6.425 |
| Cc1cc2ccn(CCO)c2cc1NC(=O)N1C=CC(=O)C[C@H]1c1ccc(F)cc1 [Compound 156, (S)-2-(4-Fluoro-phenyl)-4-oxo-3,4-dihydro-2H-pyridine-1-carboxylic acid [1-(2-hydroxy-ethyl)-5-methyl-1H-indol-6-yl]-amide] | 8.155 |
| CNC(=O)COc1cc(NC(=O)N2C=CC(=O)C[C@H]2c2ccc(F)cc2)c(Br)cc1Cl [Compound 25, (S)-2-(4-Fluoro-phenyl)-4-oxo-3,4-dihydro-2H-pyridine-1-carboxylic acid (2-bromo-4-chloro-5-methylcarbamoylmethoxy-phenyl)-amide] | 6.785 |
| COc1ccc(NC(=O)N2C=CC(=O)C[C@H]2c2ccc(F)cc2)c(Br)c1 [Compound 89, (S)-2-(4-Fluoro-phenyl)-4-oxo-3,4-dihydro-2H-pyridine-1-carboxylic acid (2-bromo-4-methoxy-phenyl)-amide] | 7.45 |
| Cc1nn(C)c2cc(NC(=O)N3C=CC(=O)C[C@H]3c3ccc(F)cc3)ccc12 [Compound 145, (S)-2-(4-Fluoro-phenyl)-4-oxo-3,4-dihydro-2H-pyridine-1-carboxylic acid (1,3-dimethyl-1H-indazol-6-yl)-amide] | 6.535 |
| COc1cc(NC(=O)N2C=CC(=O)C[C@H]2c2ccc(F)cc2)c(F)cc1C [Compound 49, (S)-2-(4-Fluoro-phenyl)-4-oxo-3,4-dihydro-2H-pyridine-1-carboxylic acid (2-fluoro-5-methoxy-4-methyl-phenyl)-amide] | 7.21 |
| O=C1C=CN(C(=O)Nc2ccc3c(c2)NC(=O)C3)[C@H](c2ccc(F)cc2)C1 [Compound 134, (S)-2-(4-Fluoro-phenyl)-4-oxo-3,4-dihydro-2H-pyridine-1-carboxylic acid (2-oxo-2,3-dihydro-1H-indol-6-yl)-amide] | 5.385 |
